# Patent US5486511A, “4-amino-17β-(cyclopropyloxy)androst-4-en-3-one, 4-amino-17β-(cyclopropylamino)androst-4-en-3-one and related compounds as C17-20 lyase and 5α-reductase” (Merrell Dow Pharmaceuticals Inc., priority 1994, dated 1996)
# System: human prostatic tumor xenographs (PC-82)
# Experiment: Inhibition of human prostatic tumor growth (PC-82 xenografts in athymic mice)
# Type: in vivo
# Protocol: In this model, human prostatic tumor xenographs (PC-82) are grown in athymic mice. The tumors are serially transplantable, androgen-responsive, slow-growing (i.e. 20-30 days for tumor volume to double) and are moderately differentiated human prostatic adenocarcinoma. These tumors will regress following androgen ablation with a half-life of 18 days (van Weerden, W. M. et al., Prostate 23:149-164 (1993).
# The above tumor model of androgen-dependent human prostatic cancer was utilized to evaluate 4-amino-17β-(cyclopropyloxy)androst-4-en-3-one for inhibition of prostatic tumor growth following daily oral treatment at 30 and 100 mg/kg/day (See Table 2). Two control groups were tested, including one which received only the delivery vehicle and another which were bilaterally castrated. Tumor volumes were measured three times per week using a digital caliper using the formula: V (mm^3)=d1 ×(d2)^2 /2 were d1 is the length and d2 the width. The relative percent change in tumor volume is based on the mean tumor volume of the vehicle control groups at week 0 being set equal to 100%.
compound,measurement,setting,value
"C[C@]12CC[C@H]3[C@@H](CCC4=C(N)C(=O)CC[C@@]43C)[C@@H]1CC[C@@H]2OC1CC1 [Compound 2, 4-Amino-17β-(cyclopropyloxy)androst-4-en-3-one]",Relative percent tumor volume compared to vehicle control at beginning of timed period,"30 mg/kg/day oral, 0 weeks",105%
same,Tumor volume,"30 mg/kg/day oral, 0 weeks",541 ± 71 mm^3
same,Relative percent tumor volume compared to vehicle control at beginning of timed period,"30 mg/kg/day oral, +2 weeks",150%
same,Tumor volume,"30 mg/kg/day oral, +2 weeks",771 ± 108 mm^3
same,Relative percent tumor volume compared to vehicle control at beginning of timed period,"30 mg/kg/day oral, +4 weeks",253%
same,Tumor volume,"30 mg/kg/day oral, +4 weeks",1305 ± 309 mm^3
same,Relative percent tumor volume compared to vehicle control at beginning of timed period,"100 mg/kg/day oral, 0 weeks",83%
same,Tumor volume,"100 mg/kg/day oral, 0 weeks",426 ± 49 mm^3
same,Relative percent tumor volume compared to vehicle control at beginning of timed period,"100 mg/kg/day oral, +2 weeks",117%
same,Tumor volume,"100 mg/kg/day oral, +2 weeks",601 ± 66 mm^3
same,Relative percent tumor volume compared to vehicle control at beginning of timed period,"100 mg/kg/day oral, +4 weeks",163%
same,Tumor volume,"100 mg/kg/day oral, +4 weeks",840 ± 86 mm^3
same,Inhibition of human prostatic tumor growth (in words),daily oral treatment,prolonged inhibition of human prostatic tumor growth
